Measured values published in US9770446B2, “Piperidine urea derivatives” (MERCK PATENT GMBH, priority 2013, dated 2017).
pIC50: −log10 of the molar value.

Experiments:
Tankyrase = experiment: Cellular inhibition of Tankyrase: Axin2 level in DLD1 cells (Luminex); format: cell-based; details: 24 hours, Axin2 increase, read-out: EC50 [M] TNKS cellular assay
Description: Measurement of Cellular Inhibition of Tankyrase
Since Tankyrases have been described to modulate cellular level of Axin2 (Huang et al., 2009; Nature) the increase of Axin2 level is used as read-out for determination of cellular inhibition of Tankyrases in a Luminex based assay.
Cells of the colon carcinoma cell line DLD1 are plated in 96 well plates with 1.5×10^4 cells per well. Next day, cells are treated with a serial dilution of test compound in seven steps as triplicates with a final DMSO concentration of 0.3%. After 24 hours, cells are lysed in lysis buffer (20 mM Tris/HCl pH 8.0, 150 mM NaCl, 1% NP40, 10% Glycerol) and lysates are cleared by centrifugation through a 96 well filter plate (0.65 μm). Axin2 protein is isolated from cell lysates by incubation with a monoclonal anti-Axin2 antibody (R&D Systems #MAB6078) that is bound to fluorescent carboxybeads. Then, bound Axin2 is specifically detected with a polyclonal anti-Axin2 antibody (Cell Signaling #2151) and an appropriate PE-fluorescent secondary antibody. The amount of isolated Axin2 protein is determined in a Luminex^200 machine (Luminex Corporation) according to the manufacturer's instruction by counting 100 events per well. Inhibition of Tankyrase by test compounds results in higher levels of Axin2 which directly correlates with an increase of detectable fluorescence. As controls cells are treated with solvent alone (neutral control) and with a Tankyrase reference inhibitor IWR-2 (3E-06 M) which refers as control for maximum increase of Axin2. For analysis, the obtained data are normalized against the untreated solvent control and fitted for determination of the EC50 values using the Assay Explorer software (Accelrys).

[1] = target: T1, GST-tagged Tankyrase-1 (1023-1327 aa) (Homo sapiens, UniProt O95271); experiment: Tankyrase 1 autoparsylation HTRF enzyme assay; format: biochemical; details: read-out: IC50 TNKS1 enzyme assay
T1 construct: GST-tagged Tankyrase-1 (1023-1327 aa)
Description: (§1) Biochemical activity testing of Tankyrase 1 and 2: Autoparsylation assay
(§2) The autoparsylation assay is run in two steps: the enzymatic reaction in which GST-tagged Tankyrase-1, resp Tankyrase-2 transferred biotinylated ADP-ribose to itself from biotinylated NAD as co-substrate and the detection reaction where a time resolved FRET between cryptate labelled anti-GST bound to the GST tag of the enzyme and Xlent® labelled-streptavidin bound the biotin-parsylation residue is analysed. The autoparsylation activity was detectable directly via the increase in HTRF signal.
(§3) The autoparsylation assay is performed as 384-well HTRF® (Cisbio, Codolet, France) assay format in Greiner low volume nb 384-well microtiter plates and is used for high throughput screen. 250 nM GST-tagged Tankyrase-1 (1023-1327 aa), respectively about 250 nM GST-tagged Tankyrase-2 (873-1166 aa) and 5 μM bio-NAD (Biolog, Life science Inst., Bremen, Germany) as co-substrate are incubated in a total volume of 5 μl (50 mM HEPES, 4 mM Mg-chloride, 0.05% Pluronic F-68, 1.4 mM DTT, 0.5% DMSO, pH 7.7) in the absence or presence of the test compound (10 dilution concentrations) for 90 min at 30° C. The reaction is stopped by the addition of 1 μl 50 mM EDTA solution. 2 μl of the detection solution (1.6 μM SA-Xlent® (Cisbio, Codolet, France), 7.4 nM Anti-GST-K® (Eu-labelled anti-GST, Cisbio, Codolet, France) in 50 mM HEPES, 800 mM KF, 0.1% BSA, 20 mM EDTA, 0.1% CHAPS, pH 7.0) are added. After 1 h incubation at room temperature the HTRF is measured with an Envision multimode reader (Perkin Elmer LAS Germany GmbH) at excitation wavelength 340 nm (laser mode) and emission wavelengths 615 nm and 665 nm. The ratio of the emission signals is determined. The full value used is the inhibitor-free reaction. The pharmacological zero value used is XAV-939 (Tocris) in a final concentration of 5 μM. The inhibitory values (IC50) are determined using either the program Symyx Assay Explorer® or Condosseo® from GeneData.

[2] = target: T2, GST-tagged Tnks-2 (873-1166 aa) (Homo sapiens, UniProt Q9H2K2); experiment: TNKS2 activity ELISA (autoparsylation assay); format: biochemical
T2 construct: GST-tagged Tnks-2 (873-1166 aa, prepared in-house); made in house
Description: (§4) Description of the TNKS1 and TNKS2 ELISA Assay
(§5) Biochemical Activity Testing of TNKS 1 and 2: Activity ELISA (Autoparsylation Assay)
(§6) For analysis of autoparsylation activity of TNKS 1 and 2 an activity ELISA iss performed: In the first step GST tagged TNKS is captured on a Glutathione coated plate. Then the activity assay with biotinylated NAD is performed in the absence/presence of the compounds. During the enzymatic reaction GST tagged TNKS transfers biotinylated ADP-ribose to itself from biotinylated NAD as co-substrate. For the detection streptavidin-HRP conjugate is added that binds to the biotinylated TNKS and is thereby captured to the plates. The amount of biotinylated resp. autoparsylated TNKS is detected with a luminescence substrate for HRP. The level of the luminescence signal correlates directly with the amount of autoparsylated TNKS and therefore with activity of TNKS.
(§7) The activity ELISA is performed in 384 well Glutathione coated microtiter plates (Express capture Glutathione coated plate, Biocat, Heidelberg, Germany). The plates are pre-equilibrated with PBS. Then the plates are incubated with 50 μl 20 ng/well GST-tagged Tnks-1 (1023-1327 aa, prepared in-house), respectively GST-tagged Tnks-2 (873-1166 aa, prepared in-house) in assay buffer (50 mM HEPES, 4 mM Mg-chloride, 0.05% Pluronic F-68, 2 mM DTT, pH 7.7) overnight at 4° C. The plates are washed 3 times with PBS-Tween-20. The wells are blocked by incubation at room temperature for 20 minutes with 50 μl blocking buffer (PBS, 0.05% Tween-20, 0.5% BSA). Afterwards the plates are washed 3 times with PBS-Tween-20. The enzymatic reaction is performed in 50 μl reaction solution (50 mM HEPES, 4 mM Mg-chloride, 0.05% Pluronic F-68, 1.4 mM DTT, 0.5% DMSO, pH 7.7) with 10 μM bio-NAD (Biolog, Life science Inst., Bremen, Germany) as co-substrate in the absence or presence of the test compound (10 dilution concentrations) for 1 hour at 30° C. The reaction is stopped by 3 times washing with PBS-Tween20. For the detection 50 μl of 20 ng/μl Streptavidin, HRP conjugate (MoBiTec, Göttingen, Germany) in PBS/0.05% Tween-20/0.01% BSA are added and the plates are incubated for 30 minutes at room temperature. After three times washing with PBS-Tween-20 50 μl of SuperSignal ELISA Femto Maximum sensitivity substrate solution (ThermoFisherScientific (Pierce), Bonn, Germany) are added. Following a 1 minute incubation at room temperature luminescence signals are measured with an Envision multimode reader (Perkin Elmer LAS Germany GmbH) at 700 nm. The full value used is the inhibitor-free reaction. The pharmacological zero value used is XAV-939 (Tocris) in a final concentration of 5 μM. The inhibitory values (IC50) are determined using either the program Symyx Assay Explorer® or Condosseo® from GeneData.

[3] = target: T3, GST-tagged Tankyrase-2 (873-1166 aa) (Homo sapiens, UniProt Q9H2K2); experiment: Tankyrase 2 autoparsylation HTRF enzyme assay; format: biochemical; details: read-out: IC50 TNKS2 enzyme assay
T3 construct: GST-tagged Tankyrase-2 (873-1166 aa)
Description: as §1, §2, §3

[4] = target: T4, GST-tagged Tnks-1 (1023-1327 aa) (Homo sapiens, UniProt O95271); experiment: TNKS1 activity ELISA (autoparsylation assay); format: biochemical
T4 construct: GST-tagged Tnks-1 (1023-1327 aa, prepared in-house); made in house
Description: as §4, §5, §6, §7

T4 sequence (O95271 1023-1327): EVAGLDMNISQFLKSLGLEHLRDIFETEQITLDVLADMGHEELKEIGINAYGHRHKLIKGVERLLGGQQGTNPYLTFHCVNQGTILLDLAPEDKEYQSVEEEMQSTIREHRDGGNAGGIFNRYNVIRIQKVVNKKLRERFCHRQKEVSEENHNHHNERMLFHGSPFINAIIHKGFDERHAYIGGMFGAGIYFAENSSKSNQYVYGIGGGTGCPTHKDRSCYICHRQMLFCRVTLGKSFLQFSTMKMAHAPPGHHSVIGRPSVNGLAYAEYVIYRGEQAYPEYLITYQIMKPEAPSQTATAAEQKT
T1 sequence (O95271 1023-1327): as above
T2 sequence (Q9H2K2 873-1166): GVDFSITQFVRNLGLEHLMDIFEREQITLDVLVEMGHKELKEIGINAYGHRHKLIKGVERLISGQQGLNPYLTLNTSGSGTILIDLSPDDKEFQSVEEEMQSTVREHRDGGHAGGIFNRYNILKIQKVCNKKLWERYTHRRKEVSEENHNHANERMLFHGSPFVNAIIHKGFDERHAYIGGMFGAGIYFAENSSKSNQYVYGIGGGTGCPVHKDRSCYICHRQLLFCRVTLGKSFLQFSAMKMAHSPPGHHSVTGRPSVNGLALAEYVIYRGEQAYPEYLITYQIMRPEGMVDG
T3 sequence (Q9H2K2 873-1166): as above

Compound	EC50 (Tankyrase) [M]	pIC50 [1]	IC50 [2] [µM]	pIC50 [3]	IC50 [4] [µM]
O=C(c1ccc(F)cc1)C1CCN(C(=O)N2CCc3ccccc32)CC1 [Compound A20, (2,3-dihydro-indol-1-yl)-[4-(4-fluoro-benzoyl)-piperidin-1-yl]-methanone]	3e-06 to 5e-05	5.52 to 6.52	< 0.3	5.52 to 6.52	< 0.3
COc1ccc(C(=O)C2CCN(C(=O)N(C)c3ccc(OC)nc3)CC2)cc1 [Compound A49, 4-(4-methoxybenzoyl)-N-(6-methoxy-3-pyridyl)-N-methyl-piperidine-1-carboxamide]	< 3e-07	> 6.52	< 0.3	5.52 to 6.52	< 0.3
CN(C(=O)N1CCC(C(=O)c2ccccc2)CC1)c1cccc(C#N)c1 [Compound A10, 4-benzoyl-piperidine-1-carboxylic acid (3-cyano-phenyl)-methyl-amide]	3e-06 to 5e-05	5.52 to 6.52	< 0.3	4.30 to 5.52	0.3 to 3
COc1ccc(N(C)C(=O)N2CCC(C(=O)c3ccc(Cl)cc3)CC2)cc1 [Compound A9, 4-(4-chloro-benzoyl)-piperidine-1-carboxylic acid (4-methoxy-phenyl)-methylamide]	3e-07 to 3e-06	> 6.52	< 0.3	5.52 to 6.52	< 0.3
O=C(c1ccc(Cl)cc1)C1CCN(C(=O)N2CCc3ccccc32)CC1 [Compound A21, [4-(4-chloro-benzoyl)-piperidin-1-yl]-(2,3-dihydro-indol-1-yl)-methanone]	3e-06 to 5e-05	5.52 to 6.52	< 0.3	5.52 to 6.52	0.3 to 3
CN(C(=O)N1CCC(C(=O)c2ccccc2)CC1)c1cccc(F)c1 [Compound A12, 4-benzoyl-piperidine-1-carboxylic acid (3-fluoro-phenyl)-methyl-amide]	3e-07 to 3e-06	5.52 to 6.52	< 0.3	5.52 to 6.52	< 0.3
COc1ccc(N(C)C(=O)N2CCC(C(=O)c3ccc(F)cc3)CC2)cn1 [Compound A51, 4-(4-fluorobenzoyl)-N-(6-methoxy-3-pyridyl)-N-methyl-piperidine-1-carboxamide]	3e-07 to 3e-06	5.52 to 6.52	< 0.3	5.52 to 6.52	< 0.3
COc1ccc(N(C)C(=O)N2CCC(C(=O)c3cccc(C)c3)CC2)cn1 [Compound A45, N-(6-methoxy-3-pyridyl)-N-methyl-4-(3-methylbenzoyl)piperidine-1-carboxamide]	< 3e-07	5.52 to 6.52	< 0.3	5.52 to 6.52	< 0.3
O=C(c1cccc(F)c1)C1CCN(C(=O)N2CCc3ccccc32)CC1 [Compound A19, (2,3-dihydro-indol-1-yl)-[4-(3-fluoro-benzoyl)-piperidin-1-yl]-methanone]	3e-06 to 5e-05	5.52 to 6.52	< 0.3	5.52 to 6.52	< 0.3
